{
  "source": "patent US20040110774A1",
  "about": "“Methods and formulations of using A1 adenosine receptor antagonists and P2x purinoceptor antagonists for the treatment and prevention of immune system disorders” (priority 2001, published 2004)",
  "origin": "cited, not measured here",
  "key": {"A1 adenosine receptor": {"target": "T1, A1 adenosine receptor (Homo sapiens, UniProt P30542)", "T1 sequence (P30542 1-326)": "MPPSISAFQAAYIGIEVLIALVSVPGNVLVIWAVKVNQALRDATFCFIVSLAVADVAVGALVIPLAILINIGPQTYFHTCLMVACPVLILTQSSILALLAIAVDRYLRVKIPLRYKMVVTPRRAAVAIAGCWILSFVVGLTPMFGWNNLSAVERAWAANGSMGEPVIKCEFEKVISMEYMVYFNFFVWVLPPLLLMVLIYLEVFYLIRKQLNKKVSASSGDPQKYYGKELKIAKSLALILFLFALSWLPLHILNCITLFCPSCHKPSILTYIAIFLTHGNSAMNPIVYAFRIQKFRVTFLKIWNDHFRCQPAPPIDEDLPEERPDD", "conditions": "in tissues"}, "RAW 264.7 macrophages": {"system": "RAW 264.7 macrophages", "conditions": "LPS-stimulated RAW 264.7 macrophages"}},
  "data": [
    {"smiles": "Cc1nc(N=Nc2ccc(S(=O)(=O)O)cc2S(=O)(=O)O)c(COP(=O)(O)O)c(C=O)c1O", "note": "[PPADS, pyridoxal-phosphate-6-azophenyl-2′,4′-disulphonic acid]", "values": [
      {"measurement": "effect of LPS on the expression of iNOS", "setting": "iNOS", "result": "prevent the effect of LPS on the expression of iNOS"}
    ]},
    {"smiles": "CCCn1c(=O)c2[nH]c(C3CCCC3)nc2n(CCC)c1=O", "note": "[DPCPX, 1,3-dipropyl-8-cyclopentylxanthine]", "values": [
      {"measurement": "nonspecific binding", "setting": "A1 adenosine receptor", "result": "less than 1%"}
    ]},
    {"smiles": "Nc1ncnc2c1ncn2[C@@H](C=O)O[C@@H](C=O)COP(=O)(O)OP(=O)(O)OP(=O)(O)O", "note": "[o-ATP, Periodate oxidized adenosine 5′-triphosphate]", "values": [
      {"measurement": "NF-kappa-B-like binding activity", "setting": "RAW 264.7 macrophages", "result": "inhibit NF-kappa-B-like binding activity"},
      {"measurement": "effects of LPS on nitric oxide (NO) production", "setting": "RAW 264.7 macrophages", "result": "inhibit the effects of LPS on nitric oxide (NO) production"},
      {"measurement": "expression of inducible nitric oxide synthase (iNOS)", "setting": "RAW 264.7 macrophages", "result": "inhibit the expression of inducible nitric oxide synthase (iNOS)"}
    ]}
  ]
}
